US20050004133A1, “Modulators of VR1 receptor” (priority 2003, published 2005)

Target: human VR1 (Homo sapiens, UniProt Q8NER1)
Details: 50 μM capsazepine; HEK-293 clones expressing hVR1; any concentration of capsaicin

Chain of human VR1 (Q8NER1 whole entry): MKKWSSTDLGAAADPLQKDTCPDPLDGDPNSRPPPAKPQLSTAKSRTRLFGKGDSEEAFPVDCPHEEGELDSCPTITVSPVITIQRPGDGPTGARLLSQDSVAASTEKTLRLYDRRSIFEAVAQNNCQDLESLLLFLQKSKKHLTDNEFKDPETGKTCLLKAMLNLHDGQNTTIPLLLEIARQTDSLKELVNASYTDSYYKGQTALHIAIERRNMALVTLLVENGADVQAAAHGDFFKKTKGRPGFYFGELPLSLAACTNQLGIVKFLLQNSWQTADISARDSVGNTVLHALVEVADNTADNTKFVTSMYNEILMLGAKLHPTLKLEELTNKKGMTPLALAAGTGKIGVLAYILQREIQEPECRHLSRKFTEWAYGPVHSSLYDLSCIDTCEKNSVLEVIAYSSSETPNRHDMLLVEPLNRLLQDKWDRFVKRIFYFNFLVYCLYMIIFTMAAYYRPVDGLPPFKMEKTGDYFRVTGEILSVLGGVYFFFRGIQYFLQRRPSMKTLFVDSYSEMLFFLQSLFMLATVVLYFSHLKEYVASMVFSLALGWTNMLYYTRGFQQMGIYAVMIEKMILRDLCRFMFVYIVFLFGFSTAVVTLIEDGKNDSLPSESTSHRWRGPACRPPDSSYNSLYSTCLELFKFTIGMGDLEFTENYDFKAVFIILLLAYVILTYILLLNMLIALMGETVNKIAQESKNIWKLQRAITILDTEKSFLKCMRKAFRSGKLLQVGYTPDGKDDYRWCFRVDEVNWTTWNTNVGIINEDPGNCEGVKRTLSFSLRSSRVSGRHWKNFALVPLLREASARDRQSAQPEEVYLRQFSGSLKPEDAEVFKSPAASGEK

Question: How did the “response to capsaicin in the presence of capsazepine” value turn out when Oc1cc2c(cc1O)CN(C(=S)NCCc1ccc(Cl)cc1)CCC2 [capsazepine] was run?
Answer: The value was “failed to respond to any concentration of capsaicin”.
